Measurements from patent EP0241618A2, “Phenyl ethanol amine derivative for use as an oncolytic medicament” (ELI LILLY AND COMPANY, priority 1985, dated 1987).

How the values were obtained:
M-5 Ovarian Carcinoma = experiment: In vivo tumor growth inhibition, delayed treatment of established tumor in mice; conditions: I.V. injection twice daily for five days, 5 days delay following inoculation
Protocol: (§1) The compound of the above example has been extensively evaluated for oncolytic activity in in vivo laboratory studies. In a typical experiment, laboratory mice were infected by subcutaneous implantation of a tumor tissue in the axillary region of the body. The implantations were accomplished by means of a trocar. Initial tumor size in each animal generally was about 2 square millimeters. Control animals received saline. Tumors were measured using vernier calipers (length and width in mm) following a specified period of treatment. The length and width measurements were converted to tumor weight by the formula: • The percent inhibition of tumor growth was then calculated for each dose level at which the compound was evaluated. Typical tumor systems implanted and against which the compound was evaluated include the CA-755 strain of adenocarcinoma, the M-5 ovarian carcinoma, the 6C3HED lymphosarcoma, the X-5563 plasma cell myeloma, the Lewis lung carcinoma, colon carcinoma-26, and C3H mammary adenocarcinoma.
(§2) Table II presents the results of studies carried out substantially as described above, except the treatment regimens were delayed for a short period following inoculation to permit the tumor to become established and start growing. Treatment consisted of I.V. injection of 02 ml of the appropriate amount of R-N-(2-phenyl-2-hydroxyethyl)-1,1-dimethyl-3-(4-aminocarbonylphenyl)propylamine hydrochloride in 5% aqueous saline twice daily for five days. Tumors were then measured as described above and compared with untreated controls.

Colon Carcinoma-26 = experiment: as above; conditions: I.V. injection twice daily for five days, 3 days delay following inoculation
Protocol: as §1, §2

CA-755 Adenocarcinoma = experiment: In vivo tumor growth inhibition, subcutaneously implanted tumor in mice; conditions: intravenous injection twice daily for five days, started the day following inoculation
Protocol: as §1
(§3) Each test group consisted of ten mice. R-N-(2-phenyl-2-hydroxyethyl)-1,i-dimethyl-3-(4-aminocarbonylphenyl)propylamine hydrochloride was dissolved in 5% aqueous saline and administered twice daily for five days as a 0.2 ml intravenous injection. Treatment was initiated on the day following inoculation of the test animals.

Lewis Lung Carcinoma = experiment: as above; conditions: intravenous injection twice daily for five days, started the day following inoculation
Protocol: as §1, §3

[1] = tested on: C3H Mammary Adenocarcinoma; experiment: as above; conditions: intravenous injection twice daily for five days, started the day following inoculation
Protocol: as §1, §3

6C3HED Lymphosarcoma = experiment: as above; conditions: intravenous injection twice daily for five days, started the day following inoculation
Protocol: as §1, §3

[2] = tested on: X-5563 Plasma Cell Myeloma; experiment: as above; conditions: intravenous injection twice daily for five days, started the day following inoculation
Protocol: as §1, §3

[3] = tested on: Chinese hamster ovary cells; experiment: Cell cycle accumulation in cells grown in low calcium medium; assay type: cell-based
Excerpt: (§4) The potent oncolytic activity of the compound to be employed in the present method of treatment has been established in standard tests designed to evaluate antitumor activity. […] The effect on spindle; microtubules appears to reflect a specific effect on the microtubule organizing center of the spindle, i.e., the centrosomes. These studies have been documented by immunofluorescent light microscopy, transmission electron microscopy and flow cytometric techniques. […] In cell culture, the compound has antimitotic activity at 2.5 u.g/ml and affects mitochondrial function at 0.01 u.g/ml as measured by alterations in Rhodamine 123 binding.

cell culture = experiment: Antimitotic activity in cell culture; assay type: cell-based; conditions: concentration at which activity is seen
Excerpt: as §4

cytoplasmic microtubules = experiment: Cell biology studies of microtubules (immunofluorescent light microscopy, transmission electron microscopy, flow cytometry); assay type: cell-based; conditions: appears to affect only the spindle microtubules
Excerpt: as §4

Question: What does the source list for `CC(C)(CCc1ccc(C(N)=O)cc1)NC[C@H](O)c1ccccc1.Cl` [Compound, R-N-(2-phenyl-2-hydroxyethyl)-1,1-dimethyl-3-(4-aminocarbonylphenyl)propylamine hydrochloride]?
Answer: % Inhibition (M-5 Ovarian Carcinoma; Dose 20 (mg/ml)): 40%; Deaths/total mice in group (M-5 Ovarian Carcinoma; Dose 20 (mg/ml)): 0/10; % Inhibition (M-5 Ovarian Carcinoma; Dose 40 (mg/ml)): 61%; Deaths/total mice in group (M-5 Ovarian Carcinoma; Dose 40 (mg/ml)): 0/10; % Inhibition (M-5 Ovarian Carcinoma; Dose 80 (mg/ml)): 81%; Deaths/total mice in group (M-5 Ovarian Carcinoma; Dose 80 (mg/ml)): 0/10; % Inhibition (Colon Carcinoma-26; Dose 20 (mg/ml)): 30%; Deaths/total mice in group (Colon Carcinoma-26; Dose 20 (mg/ml)): 0/10; % Inhibition (Colon Carcinoma-26; Dose 40 (mg/ml)): 61%; Deaths/total mice in group (Colon Carcinoma-26; Dose 40 (mg/ml)): 1/10; % Inhibition (Colon Carcinoma-26; Dose 80 (mg/ml)): 64%; Deaths/total mice in group (Colon Carcinoma-26; Dose 80 (mg/ml)): 4/9; % Inhibition (CA-755 Adenocarcinoma; Dose 10 mg/kg): 79%; % Inhibition (CA-755 Adenocarcinoma; Dose 20 mg/kg): 95%; % Inhibition (CA-755 Adenocarcinoma; Dose 40 mg/kg): 92%; % Inhibition (CA-755 Adenocarcinoma; Dose 80 mg/kg): 95%; % Inhibition (Lewis Lung Carcinoma; Dose 20 mg/kg): 35%; % Inhibition (Lewis Lung Carcinoma; Dose 40 mg/kg): 68%; % Inhibition (Lewis Lung Carcinoma; Dose 80 mg/kg): 81%; % Inhibition ([1]; Dose 20 mg/kg): 57%; % Inhibition ([1]; Dose 40 mg/kg): 95%; % Inhibition ([1]; Dose 80 mg/kg): 96%; % Inhibition (6C3HED Lymphosarcoma; Dose 20 mg/kg): 11%; % Inhibition (6C3HED Lymphosarcoma; Dose 40 mg/kg): 9%; % Inhibition (6C3HED Lymphosarcoma; Dose 80 mg/kg): 23%; % Inhibition ([2]; Dose 20 mg/kg): 29%; % Inhibition ([2]; Dose 40 mg/kg): 21%; % Inhibition ([2]; Dose 80 mg/kg): 65%; S-phase accumulation [3]: causes an S-phase accumulation; minimal effective concentration (cell culture): 2.5 µg/mL; effect on cytoplasmic microtubules (cytoplasmic microtubules): no apparent effect
